In US12122750B2, “AT2R antagonists and uses thereof” (Eli Lilly and Company, priority 2022, dated 2024) one finds Ki data, which are given here for 24 compounds.

pKi: −log10 of the molar value.

The target in this experiment is recombinant human angiotensin-II receptor subtype 2 (hAT2R) (Homo sapiens (Human), UniProt P50052). Description: Competitive radioligand binding assay (SPA), hAT2R HEK293 membranes. The note with it: [125I]-Tyr4-Angiotensin-II, read-out: AT2R Ki. Here is the method: Compound Solubilization Test and reference compounds were received as dry powder reagents, weighed, and solubilized in 100% DMSO to generate a working stock concentration of 10 mM. Membrane Preparation Protocol (hAT2R HEK293 and rAT2R HEK293) hAT2R membranes were prepared from human embryonic kidney (HEK293) cells which were stably transfected with recombinant human angiotensin-II receptor subtype 2 (hAT2R). Cells from the stable cell lines were expanded in tissue culture flasks to generate a large population of cells; cell pellet (>1 gm), and these cell pellets were stored frozen prior to initiating this membrane isolation procedure for each receptor isoform. Frozen cell pellets were thawed in ice-cold homogenization/resuspension buffer (50 mM Tris-HCl, pH 7.5) containing one Complete© protease inhibitor tablet with EDTA (Roche Diagnostics) per 50 mL buffer, and cell pellet was resuspended at a ratio of 10 mL homogenization buffer to gram of starting cell pellet. Cell suspension was homogenized with an overhead motor-driven Teflon-glass homogenizer using 15 to 20 strokes, followed by centrifugation at 1100×g for 10 minutes at 4° C. The supernatant was saved on ice, pellets were homogenized as before, and centrifuged at 1100×g for 10 minutes at 4° C. Both supernatants were combined and subsequently centrifuged at 35,000×g for 60 minutes at 4° C. The final centrifugation pellet (pellet 2) containing the isolated membranes was resuspended in buffer (4 to 5 mL/g of starting cell paste) containing protease inhibitors and quick frozen in liquid nitrogen prior to storage at -80° C. Protein concentration was determined using a BCA kit (ThermoScientific, Inc.) with bovine serum albumin (BSA) as standard. […] The assays were performed with a scintillation proximity assay (SPA) method using polyvinyltoluene (PVT) wheat germ agglutinin-coupled SPA beads (Perkin Elmer Cat. #RPNQ0001). Assay buffer containing BSA (50 mM Tris-HCl, pH 7.5, 150 mM NaCl, 0.1% w/v fatty-acid free BSA) was used for preparing radioligand, membrane and SPA bead reagent dilution to working stock concentrations. Reference control and test compounds were diluted to obtain ten-point concentration response curves using a four-fold serial dilution protocol onto assay plates, dispensed acoustically from DMSO stock using automated ECHO instrument technology (Labcyte, Inc.). Concentration response curves were routinely generated with the highest final assay concentration for the reference angiotensin-II control at 50 nM, and the highest final assay concentration for the test compounds at 50 μM. […] The hAT2R membrane was combined with PVT-WGA SPA beads to obtain a final assay concentration of 0.25 μg/well hAT2R membrane+0.1 mg/well PVT-WGA SPA bead. And the hAT1R membrane PVT-WGA SPA bead final concentrations was 0.5 μg/well hAT1R membrane+0.1 mg/well PVT-WGA SPA bead. […] For all assays, radioligand addition was followed by the addition of membrane-SPA bead mixture, i.e., the hAT2R membrane-SPA bead mixture (30 μL), the rAT2R membrane-SPA bead mixture, or the AT1R membrane-SPA bead mixture (30 μL) into the assay plate. All dispensing steps were added using a Multiflo FX (Biotek, Inc.) bulk dispensing instrument. After reagent addition steps, assay plates were sealed, and plate contents mixed for one minute on a benchtop micro-plate shaker. Following a 10-hour incubation at room temperature to allow for bead settling and radioligand binding, bound radioactivity was quantitated using a Microbeta Trilux scintillation counter (Perkin Elmer) and expressed as counts per minute (CPM). The unlabeled angiotensin-II control was included on each plate as an experimental assay reference. […] Data Analysis Procedures Compounds were tested in a 10-point concentration response curve (CRC) format, with each plate containing the positive control angiotensin-II positive reference compound, and experimental compounds.
recombinant human angiotensin-II receptor subtype 2 (hAT2R), sequence (P50052 whole entry): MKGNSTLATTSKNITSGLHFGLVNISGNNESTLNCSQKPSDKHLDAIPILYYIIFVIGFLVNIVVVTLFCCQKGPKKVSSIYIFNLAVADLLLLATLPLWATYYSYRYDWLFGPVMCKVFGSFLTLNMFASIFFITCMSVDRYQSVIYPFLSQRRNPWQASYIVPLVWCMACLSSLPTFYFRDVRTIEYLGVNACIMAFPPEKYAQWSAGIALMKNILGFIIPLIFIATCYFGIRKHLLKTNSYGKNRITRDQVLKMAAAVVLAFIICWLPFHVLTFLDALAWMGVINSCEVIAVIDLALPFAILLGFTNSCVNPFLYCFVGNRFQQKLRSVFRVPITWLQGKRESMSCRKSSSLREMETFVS
A word on the pKi: it is −log10 of the Ki, conventionally taken in molar units. As for `CC(C1CC1)N(C(=O)CC1(C(=O)O)CCN(C(=O)N(C)c2ccc(F)cc2)CC1)c1ccccc1` (single isomer, unassigned) [Example 43A, 4-[2-[N-(1-cyclopropylethyl)anilino]-2-oxo-ethyl]-1-[(4-fluorophenyl)-methyl-carbamoyl]piperidine-4-carboxylic acid], the negative-log Ki (pKi) was 8.66.

Take `CC(C1CC1)N(C(=O)CC1(C(=O)O)CCN(C(=O)N(C)c2ccc(F)cc2)CC1)c1ccccc1` (single isomer, unassigned) [Example 43B, 4-[2-[N-(1-cyclopropylethyl)anilino]-2-oxo-ethyl]-1-[(4-fluorophenyl)-methyl-carbamoyl]piperidine-4-carboxylic acid]: the pKi is 7.70.

For the compound `CN(C(=O)N1CCC(CC(=O)N(c2ccccc2)C2CCCOC2)(C(=O)O)CC1)c1ccc(C2CC2)cc1` (single isomer, unassigned) [Example 45A, 1-[(4-cyclopropylphenyl)-methyl-carbamoyl]-4-[2-oxo-2-(N-tetrahydropyran-3-ylanilino)ethyl]piperidine-4-carboxylic acid], the pKi was 8.81.

On to `CN(C(=O)N1CCC(CC(=O)N(c2ccccc2)C2CCCOC2)(C(=O)O)CC1)c1ccc(C2CC2)cc1` (single isomer, unassigned) [Example 45B, 1-[(4-cyclopropylphenyl)-methyl-carbamoyl]-4-[2-oxo-2-(N-tetrahydropyran-3-ylanilino)ethyl]piperidine-4-carboxylic acid], for which the pKi was 8.57.

Take `O=C(N1CCC(CC(=O)N(c2ccccc2)C2CCCC(F)(F)C2)(C(=O)O)CC1)N1CCc2ccc(F)cc21` (single isomer, unassigned) [Example 72A, 4-[2-(N-(3,3-difluorocyclohexyl)anilino)-2-oxo-ethyl]-1-(6-fluoroindoline-1-carbonyl)piperidine-4-carboxylic acid]: the pKi is 8.09.

`O=C(N1CCC(CC(=O)N(c2ccccc2)C2CCCC(F)(F)C2)(C(=O)O)CC1)N1CCc2ccc(F)cc21` (single isomer, unassigned) [Example 72B, 4-[2-(N-(3,3-difluorocyclohexyl)anilino)-2-oxo-ethyl]-1-(6-fluoroindoline-1-carbonyl)piperidine-4-carboxylic acid]: the pKi is 9.42.

For `CC(C)(C)OC(=O)N1CCC(CC(=O)N(c2ccccc2)C2CCCC(F)(F)C2)(C(=O)O)CC1` (single isomer, unassigned) [compound 42], the pKi is 8.40.

Turning to `CCCCCn1c(Br)nnc1N1CCC(CC(=O)N(c2ccccc2)c2ccccc2)(C(=O)O)CC1` [Example 4, 1-(5-bromo-4-pentyl-1,2,4-triazol-3-yl)-4-[2-oxo-2-(N-phenylanilino)ethyl]piperidine-4-carboxylic acid], the pKi is 8.29.

As to `O=C(CC1(C(=O)O)CCN(c2ncncc2C2CC2)CC1)N(c1ccccc1)c1ccccc1` [Example 5, 1-(5-cyclopropylpyrimidin-4-yl)-4-(2-(diphenylamino)-2-oxoethyl)piperidine-4-carboxylic acid], the pKi is 8.04.

`O=C(N1CCC(CC(=O)N(c2ccccc2)C2CCCCC2)(C(=O)O)CC1)N1CCc2ccccc21` [Example 6, 4-[2-(N-cyclohexylanilino)-2-oxo-ethyl]-1-(indoline-1-carbonyl)piperidine-4-carboxylic acid]: the pKi is 8.04.

Take `CN(C(=O)N1CCC(CC(=O)N(c2ccccc2)C2CCC(F)(F)CC2)(C(=O)O)CC1)c1ccc(F)cc1` [Example 8, 4-[2-(N-(4,4-difluorocyclohexyl)anilino)-2-oxo-ethyl]-1-[(4-fluorophenyl)-methyl-carbamoyl]piperidine-4-carboxylic acid]: the pKi is 8.52.

Take `CN(C(=O)N1CCC(CC(=O)N(c2ccccc2)C2CCCC2)(C(=O)O)CC1)c1ccc(F)cc1` [Example 9, 4-[2-(N-cyclopentylanilino)-2-oxo-ethyl]-1-[(4-fluorophenyl)-methyl-carbamoyl]piperidine-4-carboxylic acid]: the pKi is 8.58.

Take `CN(C(=O)N1CCC(CC(=O)N(c2ccccc2)C2CCCCC2)(C(=O)O)CC1)c1ccccc1F` [Example 12, 4-[2-(N-cyclohexylanilino)-2-oxo-ethyl]-1-[(2-fluorophenyl)-methyl-carbamoyl]piperidine-4-carboxylic acid]: the pKi is 9.28.

Turning to `Cc1ccc(N(C)C(=O)N2CCC(CC(=O)N(c3ccccc3)C3CCCCC3)(C(=O)O)CC2)cc1` [Example 13, 4-[2-(N-cyclohexylanilino)-2-oxo-ethyl]-1-[methyl(p-tolyl)carbamoyl]piperidine-4-carboxylic acid], the pKi was 8.84.

In the case of `COc1ccc(N(C)C(=O)N2CCC(CC(=O)N(c3ccccc3)C3CCCCC3)(C(=O)O)CC2)cc1` [Example 14, 4-[2-(N-cyclohexylanilino)-2-oxo-ethyl]-1-[(4-methoxyphenyl)-methyl-carbamoyl]piperidine-4-carboxylic acid], the pKi was 8.59.

In the case of `CCN(C(=O)N1CCC(CC(=O)N(c2ccccc2)C2CCCCC2)(C(=O)O)CC1)c1ccc(F)cc1` [Example 15, 4-[2-(N-cyclohexylanilino)-2-oxo-ethyl]-1-[ethyl-(4-fluorophenyl)carbamoyl]piperidine-4-carboxylic acid], the pKi was 8.77.

Take `O=C(CC1(C(=O)O)CCN(C(=O)N(c2ccc(F)cc2)C2CC2)CC1)N(c1ccccc1)C1CCCCC1` [Example 16, 4-[2-(N-cyclohexylanilino)-2-oxo-ethyl]-1-[cyclopropyl-(4-fluorophenyl)carbamoyl]piperidine-4-carboxylic acid]: the pKi was 8.75.

As to `CN(C(=O)N1CCC(CC(=O)N(c2ccccc2)C2CCOCC2)(C(=O)O)CC1)c1ccc(C2CC2)cc1` [Example 26, 1-[(4-cyclopropylphenyl)-methyl-carbamoyl]-4-[2-oxo-2-(N-tetrahydropyran-4-ylanilino)ethyl]piperidine-4-carboxylic acid], the pKi is 8.27.

As to `N#Cc1ccc2c(c1)N(C(=O)N1CCC(CC(=O)N(c3ccccc3)C3CCCCC3)(C(=O)O)CC1)CC2` [Example 33, 1-(6-cyanoindoline-1-carbonyl)-4-[2-(N-cyclohexylanilino)-2-oxo-ethyl]piperidine-4-carboxylic acid], the pKi was 8.71.

`Cc1ccccc1N(C(=O)CC1(C(=O)O)CCN(C(=O)N(C)c2ccc(F)cc2)CC1)c1ccccc1` [Example 37, 1-[(4-fluorophenyl)-methyl-carbamoyl]-4-[2-[N-(o-tolyl)anilino]-2-oxo-ethyl]piperidine-4-carboxylic acid]: the negative-log Ki (pKi) was 9.01.

As for `CC(C)N(C(=O)N1CCC(CC(=O)N(c2ccccc2)c2ccccc2F)(C(=O)O)CC1)c1ccc(F)cc1` [Example 38, 4-[2-(N-(2-fluorophenyl)anilino)-2-oxo-ethyl]-1-[(4-fluorophenyl)-isopropyl-carbamoyl]piperidine-4-carboxylic acid], the negative logarithm of the Ki (pKi) was 8.19.

As for `O=C(CC1(C(=O)O)CCN(C(=O)N(c2ccc(F)cc2)C2CC2)CC1)N(c1ccccc1)c1ccccc1` [Example 39, 1-[cyclopropyl-(4-fluorophenyl)carbamoyl]-4-[2-oxo-2-(N-phenylanilino)ethyl]piperidine-4-carboxylic acid], the pKi was 8.55.

For `O=C(CC1(C(=O)O)CCN(C(=O)N(c2ccc(F)cc2)C2CC2)CC1)N(c1ccccc1)c1ccccc1F` [Example 40, 1-[cyclopropyl-(4-fluorophenyl)carbamoyl]-4-[2-(N-(2-fluorophenyl)anilino)-2-oxo-ethyl]piperidine-4-carboxylic acid], the pKi was 8.86.

On to `CN(C(=O)N1CCC(CC(=O)N(c2ccccc2F)c2ccccc2F)(C(=O)O)CC1)c1ccccc1` [Example 46, 4-[2-(2-fluoro-N-(2-fluorophenyl)anilino)-2-oxo-ethyl]-1-[methyl(phenyl)carbamoyl]piperidine-4-carboxylic acid], for which the pKi was 9.39.
